These results are taken from publication PMC12051620, “Molecular basis underlying the specificity of an antagonist AA92593 for mammalian melanopsins” (The Journal of Biological Chemistry, 2025).

The target of this assay is T1, mouse melanopsin WT (Mus musculus, UniProt Q9QXZ9).
T1 construct: expressed in transfected cells; host or cells: COS-1
T1 sequence (Q9QXZ9 1-381 limits assumed): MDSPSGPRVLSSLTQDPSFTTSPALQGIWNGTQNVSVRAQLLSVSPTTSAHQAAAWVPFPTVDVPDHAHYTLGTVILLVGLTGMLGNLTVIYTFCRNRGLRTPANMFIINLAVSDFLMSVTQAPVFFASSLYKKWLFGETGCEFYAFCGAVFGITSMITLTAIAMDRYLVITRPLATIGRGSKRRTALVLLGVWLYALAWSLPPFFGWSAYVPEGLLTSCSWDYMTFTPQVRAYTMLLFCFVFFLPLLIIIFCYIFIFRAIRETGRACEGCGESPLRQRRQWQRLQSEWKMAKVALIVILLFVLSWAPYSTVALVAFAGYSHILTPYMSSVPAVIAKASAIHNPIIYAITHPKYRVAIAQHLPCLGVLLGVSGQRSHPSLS
The experiment in a line: GsX GloSensor assay with Gsα/q11. The format is cell-based. Conditions: COS-1 cells. The text has this:
To quantify the antagonistic effects of AA92593 on mammalian melanopsins, we used the GsX GloSensor assay ([12], [13], [14]). This assay measures GPCR-induced increases in intracellular cAMP levels even for Gq-, Gi/o-, or G12-coupled receptors by using Gsα chimeras ([12], [13], [14]). Because melanopsin is primarily coupled with Gq-type G proteins, a Gsα mutant with 11 C-terminal sequence of Gqα (Gsα/q11) was expressed in COS-1 cells with melanopsin and a luciferase-based cAMP biosensor (see “Experimental procedures”) ([15]). This assay enables the measurement of Gq activation by melanopsin as cAMP production (an increase in luminescence). In this study, we used C-terminal–truncated melanopsin constructs to increase the expression levels with minimal compromise in functionality ([9], [16], [17], [18], [19]). […] In addition, the C-terminal region is located far from the binding site of AA92593 (see below). Hereafter, the C-terminal–truncated melanopsin constructs are named as “WT.”
In the constructs for melanopsin expression (opsin name - GenBank ID: human melanopsin - NM_033282.4, mouse melanopsin - NM_013887.2, Xenopus Opn4x - NM_001085674.1, chicken opn4-1 - NM_001397961.1, B. belcheri melanopsin - AB205400.1, and B. lanceolatum melanopsin - MF464477.1), the C-terminal amino acid residues (94, 140, 200, 214, 296, and 308 residues for human ([9]), mouse ([9]), Xenopus, chicken, belcheri ([16]), and lanceolatum melanopsins, respectively) were removed, the 1D4 tag sequence (ETSQVAPA) was added, and inserted into the EcoRI/NotI site in a mammalian expression vector pMT. Jumping spider rhodopsin-1 (GenBank ID: AB251846.1) was also added with the 1D4 tag and inserted into pMT vector. Human and mouse melanopsins, and jumping spider rhodopsin-1 in pCDNA3.1 were kindly provided from Drs. Akihisa Terakita and Mitsumasa Koyanagi (Osaka Metropolitan University). In this paper, each opsin with the C-terminal sequence modifications as described above is denoted “WT.” Bovine Gsα and its mutants Gsα/q11 and Gsα/i11 (C-terminal 11 residues are replaced with Gqα and Giα, respectively) were also inserted into the pMT vector. The GFP-tagged melanopsin constructs, in which EGFP protein fused with C-termini of melanopsins, were prepared as previously described ([9], [50]). […]
For GloSensor assay, opsins, GloSensor assay sensor (coded by pGlo-22F), and NanoBiT-tagged G proteins were transiently expressed in COS-1 cells (kindly provided from Dr David Farrens, Oregon Health and Science University) using PEI as described previously ([24], [52]). […] For GFP-fluorescence microscopy, a 35-mm cell culture dish (IWAKI) was transfected with 2 μg melanopsin-GFP plasmid and 8 μg PEI in 400 μl Opti-mem and 1.2 ml D-MEM. […]

Setting [1] is: relative peak cAMP response vs no AA92593.

In the case of `COc1ccc(S(=O)(=O)N2CCCCC2)cc1C` [AA92593], the “Hill fitting parameter rate of dose-response curve” value was −1.15 ± 0.18. The IC50 (0.1 μM 9-cis-retinal, white light 10 s, n = 3, read-out: IC50, reduction in peak cAMP responses upon Gsα/q11 activation) was 2980 ± 580 nM. In addition, under setting [1], the “Hill fitting parameter max of dose-response curve” value was 98.86 ± 1.11 and the “Hill fitting parameter min of dose-response curve” value came to 46.53 ± 4.15.
